Data from patent US20200237700A1, “METHODS OF REDUCING OR PREVENTING OXIDATION OF SMALL DENSE LDL OR MEMBRANE POLYUNSATURATED FATTY ACIDS” (Amarin Pharmaceuticals Ireland Limited, priority 2015, published 2020).

How the values were obtained:
[1] = LOOH formation in glucose-treated model membranes, EPA versus EA and ETE (Example 5); assay type: biochemical; settings: 72 and 96 hr
Protocol: An experiment was conducted to compare the ability of EPA to prevent lipid hydroperoxide formation in model membranes treated with glucose to two other 20-carbon fatty acids: eicosanoic acid (“EA,” also referred to as arachidic acid, C20:0) and eicosatrienoic acid (“ETE,” C20:3, n−3). All MLV samples were subjected to time-dependent autoxidation by incubating at 37° C. in an uncovered, shaking water bath. This method allows lipid peroxidation to occur gradually without requiring the use of exogenous initiators. Small aliquots (5-100 μL) of each sample were removed, immediately following MLV preparation (0 hr) and after exposing samples to oxidative conditions for 72 or 96 hr, and combined with 1.0 mL of activated CHOD-iodide color reagent. Aliquot volume was reduced with each successive time point to ensure that spectrophotometric readings were within the optimal adsorption range. Test samples were covered and incubated in darkness at room temperature for at least 4 hr. Sample absorbances were then measured against a CHOD blank at 365 nm using a Beckman DU-640 spectrophotometer. The CHOD colorimetric assay is based on the oxidation of iodide (I^−) by lipid hydroperoxide (LOOH) to form triiodide (I3^−), the quantity of which is directly proportional to the amount of LOOH present in the lipid sample. The molar absorptivity (E) of I3^− is 2.46×10^4 M^−1 cm^−1 at 365 nm.

[2] = Glucose-induced membrane lipid peroxidation (LOOH) in multilamellar vesicles, CHOD-iodide assay (Example 4); assay type: biochemical; settings: for inhibited the peroxidative effects of glucose (LOOH formation): vs glucose alone
Protocol: Vitamin E (α-tocopherol) was also purchased from Sigma-Aldrich and prepared in ethanol at 1.0 mM (ε=3.06×10^4 M^−1 cm^−1 at 294 nm) just prior to experimental use. […] All test compounds were further diluted in ethanol or aqueous buffer as needed. Glucose was prepared in saline buffer (0.5 mM HEPES, 154 mM NaCl, pH 7.3) at 11.0 mM (200 mg/dL). CHOD-iodide color reagent (stock) was prepared, with slight modification, as described by from El-Saadani et al. (J. […] Samples were shell-dried under nitrogen gas and placed under vacuum for 1 h to remove residual solvent. […] Lipid suspensions were then vortexed for 3 min at ambient temperature to form MLVs. All MLV samples were subjected to time-dependent autoxidation by incubating at 37° C. in an uncovered, shaking water bath. This method allows lipid peroxidation to occur gradually without requiring the use of exogenous initiators. Small aliquots (5-100 μL) of each sample were removed, immediately following MLV preparation (0 hour) and after exposing samples to oxidative conditions for 72 or 96 hour, and combined with 1.0 mL of activated CHOD-iodide color reagent. Aliquot volume was reduced with each successive time point to ensure that spectrophotometric readings were within the optimal adsorption range. Test samples were covered and incubated in darkness at room temperature for at least 4 hr. Sample absorbances were then measured against a CHOD blank at 365 nm using a Beckman DU-640 spectrophotometer. The CHOD colorimetric assay is based on the oxidation of iodide (I^−) by lipid hydroperoxide (LOOH) to form triiodide (I3^−), the quantity of which is directly proportional to the amount of LOOH present in the lipid sample. The molar absorptivity (E) of I3^− is 2.46×10^4 M^−1 cm^−1 at 365 nm. […] The concentration of glucose selected was consistent with previous experimental studies of hyperglycemia under controlled laboratory conditions or observed in well-defined animal models of Type II diabetes following a glucose challenge. […] Values in FIG. 1 are mean±S.D. (N=6). EPA inhibited the peroxidative effects of glucose by 88% and 86% at 72 and 96 hours, respectively, which was highly significant (p<0.001) as compared to glucose treatment alone. […] Overall ANOVA-0 hour data: p=0.6655, F=0.4185; 72 hour data: p<0.0001, F=428.72; 96 hour data: p<0.0001, F=322.01.

HUVECs = assay: NO release from HUVECs incubated with treated, oxidized sdLDL samples (Example 12); assay type: cell-based, human; settings: EPA-treated
Protocol: All samples, with the exception of non-oxidized sdLDL controls, were subjected to copper-induced oxidation for 1 hour. Human umbilical vein endothelial cells (HUVECs) were incubated with the various sdLDL samples, stimulated with calcium, and monitored for nitric oxide (NO) and peroxynitrite (ONOO^−) release using nanosensor technology.

human sdLDL = assay: Copper-induced sdLDL oxidation, TBARS after 2 hr (Example 6); assay type: biochemical; settings: 10 μM CuSO4
Protocol: An experiment to study the antioxidant effect of EPA in small dense […] performed. […] Vitamin E (α-tocopherol) was purchased from Sigma-Aldrich and prepared in ethanol at 1.0 mM (ε=3.06×10^4 M^-1 cm^-1 at 294 nm) just prior to experimental use. All test compounds were further diluted in ethanol or aqueous buffer as needed. Venous blood was collected from healthy volunteers into vacutainer tubes containing sodium EDTA. Plasma was separated by centrifugation at 3000 g for 25 min at 4° C. and adjusted to a density of 1.020 g/mL with KBr. Triglyceride-rich lipoproteins (TGRL) and LDL fractions were then isolated by sequential centrifugation at 70,000 rpm at 4° C. in a Beckman LE-80 ultracentrifuge using a Beckman 50.4Ti rotor (Beckman Coulter, Inc., Fullerton, Calif.). The TGRL fraction (with a relative density of <1.020) was aspirated from the top of the centrifugate and discarded, leaving an LDL-enriched […] relative density of 1.020 to 1.063). […] The sdLDL subfraction was retained for additional experimentation. Plasma and lipoprotein fractions were maintained at 4° C. and protected from excessive exposure to light. Prior to oxidation experiments, EDTA was removed from the lipoprotein fraction using PD-10 desalting columns (GE Healthcare, Piscataway N.J.). After equilibration of the column with phosphate buffered saline (PBS), 2.5 mL of the lipoprotein fraction was loaded on the column and the flow-through discarded. The lipoprotein was then eluted with 3 mL of PBS. The LDL fractions were further diluted with PBS to obtain a 100 μg/mL apoB100 concentration. […] Data are presented as mean±S.D. for (N) separate samples or treatment groups. Differences between groups were analyzed using the two-tailed, Student's t-test (for comparisons between only two groups) or ANOVA followed by Dunnett or Student-Newman-Keuls multiple comparisons post-hoc analysis (for comparisons between three or more groups).

In the case of CC/C=C\C/C=C\C/C=C\C/C=C\C/C=C\CCCC(=O)O [EPA, cis-5,8,11,14,17-eicosapentaenoic acid], the “LOOH formation compared to vehicle only, glucose only, glucose and EA, glucose and ETE” value [1] is reported as “significantly less LOOH formation”, the “effect on LOOH formation / lipid peroxidation” value ([2]; 72- and 96-hour time points, 1:30 drug-to-phospholipid mole ratio, glucose) is reported as “significantly inhibited LOOH formation” and the “inhibited the peroxidative effects of glucose (LOOH formation)” value ([2]; 72 hours, glucose 200 mg/dL, 1:30 drug-to-phospholipid mole ratio) is reported as 88%. For the same compound, the “inhibited the peroxidative effects of glucose (LOOH formation)” value ([2]; 96 hours, glucose 200 mg/dL, 1:30 drug-to-phospholipid mole ratio) was 86%, the “antioxidant effects of separate treatments (LOOH formation)” value ([2]; each at 1.0 μM, glucose 200 mg/dL, 96 hours) was “potent antioxidant effects” and the “NO release increased as compared to non-oxidized sdLDL treatment” value (HUVECs) was 23%. For the same compound, the “NO release increased as compared to oxidized LDL treatment” value (HUVECs) was 53%, the “reduced TBARS levels compared to vehicle-treated controls” value (human sdLDL; 1.0 μM) was 13% and the “reduced TBARS levels compared to vehicle-treated controls” value (human sdLDL; 10.0 μM) was 57%.
